Read-outs that look alike come from different tables or passages of the source.
Legend:
[1] = molecular target: neuraminidase of A/Hiroshima/57/2014 (H275Y/I223R) (Influenza A virus, UniProt W8DXJ8, H275Y/I223R)
[2] = molecular target: neuraminidase of A/Osaka/8/2014 (H275Y) (Influenza A virus, UniProt W8DXJ8, H275Y)
[3] = molecular target: neuraminidase of A/Ibaraki/54/2016 (H275Y/I223K) (Influenza A virus, UniProt A0A0X9QTS2, H275Y/I223K)
[4] = molecular target: neuraminidase of A/Yokohama/94/2016 (H275Y) (Influenza A virus, UniProt A0A0X9QTS2, H275Y)
[5] = molecular target: neuraminidase of A/Hiroshima/13/2016 (H275Y/G147R) (Influenza A virus, UniProt A0A0X9QTS2, G147R/H275Y)
[6] = molecular target: neuraminidase of A/Aichi/83/2016 (H275Y) (Influenza A virus, UniProt A0A0X9QTS2, H275Y)
[7] = system: neuraminidase of the dual H275Y mutant viruses
[8] = system: A/Hiroshima/57/2014 (H275Y/I223R)
[9] = system: A/Osaka/8/2014 (H275Y)
[10] = system: A/Ibaraki/54/2016 (H275Y/I223K)
[11] = system: A/Yokohama/94/2016 (H275Y)
[12] = system: A/Hiroshima/13/2016 (H275Y/G147R)
[13] = system: A/Aichi/83/2016 (H275Y)
[14] = system: All viruses tested (dual H275Y, single H275Y, wild-type)
[15] = system: A/Hiroshima/57/2014 (H275Y/I223R); remark: listed apart in the source
[16] = system: A/Osaka/8/2014 (H275Y); remark: listed apart in the source
[17] = system: A/Ibaraki/54/2016 (H275Y/I223K); remark: listed apart in the source
[18] = system: A/Yokohama/94/2016 (H275Y); remark: listed apart in the source
[19] = system: A/Hiroshima/13/2016 (H275Y/G147R); remark: listed apart in the source
[20] = system: A/Aichi/83/2016 (H275Y); remark: listed apart in the source
[21] = system: All viruses tested (dual H275Y, single H275Y, wild-type); remark: listed apart in the source

CCC(CC)[C@H](NC(C)=O)[C@@H]1[C@H](O)[C@@H](C(=O)O)C[C@H]1N=C(N)N.O.O.O [Peramivir, peramivir trihydrate]
Fold-change in IC50 compared with the wild-type virus [1]: 944.20 (94,000) fold
IC50 [1]: 944 nM
Fold-change in IC50 compared with the wild-type virus [2]: 28.25 (2,800) fold
IC50 [2]: 28.2 nM
Fold-change in IC50 compared with the wild-type virus [3]: 501.62 (7,200) fold
IC50 [3]: 502 nM
Fold-change in IC50 compared with the wild-type virus [4]: 20.88 (300) fold
IC50 [4]: 20.9 nM
Fold-change in IC50 compared with the wild-type virus [5]: 114.14 (1,400) fold
IC50 [5]: 114 nM
Fold-change in IC50 compared with the wild-type virus [6]: 31.93 (400) fold
IC50 [6]: 31.9 nM
Susceptibility of the H275Y/I223R, H275Y/I223K and H275Y/G147R mutant viruses (in words) [7]: enhanced cross-resistance

[H]/N=C(\N)N[C@H]1C=C(C(=O)O)O[C@@H]([C@H](OC)[C@H](O)CO)[C@@H]1NC(C)=O [Laninamivir]
Susceptibility of the H275Y/G147R mutant virus (in words) [5]: retained susceptibility
Susceptibility of the H275Y/I223R and H275Y/I223K mutant viruses (in words) [7]: reduced susceptibility

CC(=O)N[C@H]1[C@H]([C@H](O)[C@H](O)CO)OC(C(=O)O)=C[C@@H]1N=C(N)N [Zanamivir, zanamivir hydrate]
Susceptibility of the H275Y/I223R, H275Y/I223K and H275Y/G147R mutant viruses (in words) [7]: reduced susceptibility

O=C1c2c(O)c(=O)ccn2N([C@@H]2c3ccccc3SCc3c2ccc(F)c3F)[C@@H]2COCCN12 [Baloxavir, Baloxavir acid]
Fold-change in IC50 compared with the wild-type virus [8]: 8.34 (2.1) fold
IC50 [8]: 8.34 nM
Fold-change in IC50 compared with the wild-type virus [9]: 5.10 (1.3) fold
IC50 [9]: 5.1 nM
Fold-change in IC50 compared with the wild-type virus [10]: 7.24 (1.2) fold
IC50 [10]: 7.24 nM
Fold-change in IC50 compared with the wild-type virus [11]: 3.49 (0.6) fold
IC50 [11]: 3.49 nM
Fold-change in IC50 compared with the wild-type virus [12]: 10.59 (1.0) fold
IC50 [12]: 10.6 nM
Fold-change in IC50 compared with the wild-type virus [13]: 10.18 (0.9) fold
IC50 [13]: 10.2 nM
Susceptibility of all viruses tested (in words) [14]: susceptible

NC(=O)c1nc(F)c[nH]c1=O [Favipiravir, favipiravir]
EC50 [15]: 7990 nM
Fold-change in EC50 compared with the wild-type virus [15]: 7.99 (1.2) fold
EC50 [16]: 4760 nM
Fold-change in EC50 compared with the wild-type virus [16]: 4.76 (0.7) fold
EC50 [17]: 10200 nM
Fold-change in EC50 compared with the wild-type virus [17]: 10.20 (1.0) fold
EC50 [18]: 21400 nM
Fold-change in EC50 compared with the wild-type virus [18]: 21.40 (2.1) fold
EC50 [19]: 15100 nM
Fold-change in EC50 compared with the wild-type virus [19]: 15.13 (1.7) fold
EC50 [20]: 14800 nM
Fold-change in EC50 compared with the wild-type virus [20]: 14.83 (1.7) fold
Susceptibility of all viruses tested (in words) [21]: susceptible

Source: publication PMC7559125 (Pathogens, 2020)
